Measured values as given in the OligoGym collection.
HELM strings list units from the 5' end as sugar, base in round brackets, then linkage (d deoxyribose, r ribose, m 2'-O-methyl, p phosphodiester). Strings are as the collection lists them; they lack the last nucleoside at the 3' end of the tested compound. [moe] = 2'-O-(2-methoxyethyl) (MOE); [sp] = phosphorothioate linkage; [m5C] = 5-methylcytosine

biological target: APP; test: mouse, dose not given; conditions: ASO

Point of comparison: “RNA1{[moe](G)[sp].[moe](T)p.[moe](G)p.[moe]([m5C])p.[moe](T)[sp].d(T)[sp].d(A)[sp].d(T)[sp].d(A)[sp].d(A)[sp].d([m5C])[sp].d(T)[sp].d([m5C])[sp].d(T)[sp].d([m5C])[sp].[moe](A)p.[moe](T)p.[moe](A)[sp].[moe]([m5C])}$$$$ (last 3' nucleoside missing)”, 3 h FOB score 1 score 0-7. Against it:
- RNA1{[moe]([m5C])[sp].[moe](G)p.[moe](G)p.[moe](A)p.[moe]([m5C])[sp].d(T)[sp].d(T)[sp].d(T)[sp].d(T)[sp].d(T)[sp].d(T)[sp].d([m5C])[sp].d(T)[sp].d(T)[sp].d([m5C])[sp].[moe](T)p.[moe](T)p.[moe](G)[sp].[moe]([m5C])}$$$$ (last 3' nucleoside missing) — lower, 0 score 0-7
- RNA1{[moe](T)[sp].[moe]([m5C])p.[moe](A)p.[moe](T)p.[moe]([m5C])[sp].d(A)[sp].d(A)[sp].d([m5C])[sp].d(T)[sp].d(T)[sp].d(T)[sp].d(T)[sp].d(T)[sp].d(A)[sp].d(G)[sp].[moe](T)p.[moe]([m5C])p.[moe]([m5C])[sp].[moe](T)}$$$$ (last 3' nucleoside missing) — lower, 0.67 score 0-7
- RNA1{[moe](G)[sp].[moe](A)p.[moe](A)p.[moe]([m5C])p.[moe](T)[sp].d([m5C])[sp].d(G)[sp].d(A)[sp].d(A)[sp].d([m5C])[sp].d([m5C])[sp].d(A)[sp].d([m5C])[sp].d([m5C])[sp].d(T)[sp].[moe]([m5C])p.[moe](T)p.[moe](T)[sp].[moe]([m5C])}$$$$ (last 3' nucleoside missing) — the same, 1 score 0-7
- RNA1{[moe](T)[sp].[moe](G)p.[moe](A)p.[moe](T)p.[moe](G)[sp].d([m5C])[sp].d(A)[sp].d([m5C])[sp].d(A)[sp].d(T)[sp].d(A)[sp].d(T)[sp].d([m5C])[sp].d([m5C])[sp].d(A)[sp].[moe](G)p.[moe](G)p.[moe]([m5C])[sp].[moe](T)}$$$$ (last 3' nucleoside missing) — lower, 0.25 score 0-7
- RNA1{[moe](T)[sp].[moe](T)p.[moe](G)p.[moe](A)p.[moe](T)p.[moe](A)p.d(T)[sp].d(T)[sp].d(T)[sp].d(G)[sp].d(T)[sp].d([m5C])[sp].d(A)[sp].d(A)[sp].d([m5C])[sp].d([m5C])[sp].[moe]([m5C])p.[moe](A)[sp].[moe](G)}$$$$ (last 3' nucleoside missing) — higher, 4.75 score 0-7
- RNA1{[moe]([m5C])[sp].[moe](T)p.[moe](T)p.[moe](A)p.[moe]([m5C])[sp].d(A)[sp].d(T)[sp].d([m5C])[sp].d(A)[sp].d(T)[sp].d(T)[sp].d(T)[sp].d(T)[sp].d([m5C])[sp].d(T)[sp].[moe](T)p.[moe](G)p.[moe]([m5C])[sp].[moe](A)}$$$$ (last 3' nucleoside missing) — the same, 1 score 0-7
- RNA1{[moe](G)[sp].[moe](T)p.[moe]([m5C])p.[moe]([m5C])p.[moe](A)[sp].d(A)[sp].d(A)[sp].d(A)[sp].d([m5C])[sp].d(A)[sp].d([m5C])[sp].d(A)[sp].d(G)[sp].d(T)[sp].d(A)[sp].[moe]([m5C])p.[moe](A)p.[moe](A)[sp].[moe]([m5C])}$$$$ (last 3' nucleoside missing) — higher, 1.67 score 0-7
- RNA1{[moe](G)[sp].[moe](T)p.[moe](T)p.[moe]([m5C])p.[moe]([m5C])[sp].d(A)[sp].d(A)[sp].d(A)[sp].d(G)[sp].d(A)[sp].d(T)[sp].d(T)[sp].d([m5C])[sp].d([m5C])[sp].d(A)[sp].[moe]([m5C])p.[moe](T)p.[moe](T)[sp].[moe](T)}$$$$ (last 3' nucleoside missing) — higher, 1.25 score 0-7
- RNA1{[moe]([m5C])[sp].[moe](T)p.[moe]([m5C])p.[moe]([m5C])p.[moe](A)[sp].d(A)[sp].d(T)[sp].d(T)[sp].d(T)[sp].d(T)[sp].d(A)[sp].d(A)[sp].d([m5C])[sp].d(T)[sp].d(T)[sp].[moe](G)p.[moe]([m5C])p.[moe](A)[sp].[moe]([m5C])}$$$$ (last 3' nucleoside missing) — higher, 2.75 score 0-7
- RNA1{[moe]([m5C])[sp].[moe]([m5C])p.[moe](A)p.[moe](A)p.[moe](A)[sp].d(G)[sp].d(A)[sp].d(T)[sp].d(T)[sp].d([m5C])[sp].d([m5C])[sp].d(A)[sp].d([m5C])[sp].d(T)[sp].d(T)[sp].[moe](T)p.[moe]([m5C])p.[moe](T)[sp].[moe]([m5C])}$$$$ (last 3' nucleoside missing) — lower, 0 score 0-7
- RNA1{[moe](G)[sp].[moe]([m5C])p.[moe](A)p.[moe]([m5C])p.[moe]([m5C])[sp].d(A)[sp].d(T)[sp].d([m5C])[sp].d(T)[sp].d(A)[sp].d(T)[sp].d(A)[sp].d(A)[sp].d(T)[sp].d(A)[sp].[moe]([m5C])p.[moe]([m5C])p.[moe](A)[sp].[moe](T)}$$$$ (last 3' nucleoside missing) — lower, 0 score 0-7
- RNA1{[moe](G)[sp].[moe](T)p.[moe](T)p.[moe]([m5C])p.[moe](A)p.[moe]([m5C])[sp].d(A)[sp].d(G)[sp].d(T)[sp].d(T)[sp].d(T)[sp].d(A)[sp].d([m5C])[sp].d([m5C])[sp].d([m5C])[sp].d([m5C])[sp].[moe](A)p.[moe](A)[sp].[moe](G)}$$$$ (last 3' nucleoside missing) — lower, 0 score 0-7
- RNA1{[moe]([m5C])[sp].[moe]([m5C])p.[moe](T)p.[moe](T)p.[moe](G)[sp].d([m5C])[sp].d(T)[sp].d(A)[sp].d(T)[sp].d(T)[sp].d([m5C])[sp].d(A)[sp].d(T)[sp].d(T)[sp].d(T)[sp].[moe](T)p.[moe](T)p.[moe]([m5C])[sp].[moe](A)}$$$$ (last 3' nucleoside missing) — lower, 0 score 0-7
- RNA1{[moe](G)[sp].[moe]([m5C])p.[moe](A)p.[moe](A)p.[moe](A)[sp].d(G)[sp].d(A)[sp].d(A)[sp].d([m5C])[sp].d(A)[sp].d([m5C])[sp].d([m5C])[sp].d(A)[sp].d(A)[sp].d(T)[sp].[moe](T)p.[moe](T)p.[moe](T)[sp].[moe](T)}$$$$ (last 3' nucleoside missing) — higher, 3 score 0-7
- RNA1{[moe](G)[sp].[moe](T)p.[moe]([m5C])p.[moe]([m5C])p.[moe](A)[sp].d(T)[sp].d(T)[sp].d(A)[sp].d([m5C])[sp].d(A)[sp].d(A)[sp].d(A)[sp].d([m5C])[sp].d(A)[sp].d(A)[sp].[moe](G)p.[moe](T)p.[moe](A)[sp].[moe](A)}$$$$ (last 3' nucleoside missing) — the same, 1 score 0-7
- RNA1{[moe](G)[sp].[moe](G)p.[moe]([m5C])p.[moe](A)p.[moe](T)p.[moe]([m5C])[sp].d(A)[sp].d([m5C])[sp].d(T)[sp].d(T)[sp].d(A)[sp].d([m5C])[sp].d(A)[sp].d(A)[sp].d(A)[sp].d([m5C])[sp].[moe](T)p.[moe]([m5C])[sp].[moe](A)}$$$$ (last 3' nucleoside missing) — lower, 0 score 0-7
- RNA1{[moe](T)[sp].[moe](T)p.[moe](G)p.[moe](A)p.[moe](A)[sp].d([m5C])[sp].d([m5C])[sp].d([m5C])[sp].d(A)[sp].d([m5C])[sp].d(A)[sp].d(T)[sp].d([m5C])[sp].d(T)[sp].d(T)[sp].[moe]([m5C])p.[moe](T)p.[moe](G)[sp].[moe]([m5C])}$$$$ (last 3' nucleoside missing) — lower, 0 score 0-7
